Laboratory results taken from patent US20050282258A1 (priority 2004, published 2005).
Like-named read-outs stand apart in the source and are kept apart here.

How the values were obtained:
yggA transcription = assay type: cell-based, Escherichia coli; conditions: for Beta-galactosidase specific activity (units) in medium with 1 mM arginine / Beta-galactosidase specific activity (units) in medium with 1 mM lysine: glucose-minimal A medium, 37° C.; for transcription of the yggA gene upon supplementation of the culture medium: strains carrying the wild-type argP gene
[1] = system: wild-type E. coli strain MC4100; assay: Canavanine tolerance of strains, growth in glucose-minimal A medium; assay type: cell-based, Escherichia coli; conditions: scored after 24 hours at 37° C.
[2] = strain GJ4748/pHYD956 (argR), Nil = 217
[3] = strain MC4100/pHYD926/pHYD956 (argP-S94L), Nil = 1557
[4] = strain MC4100/pHYD956, Nil = 20

SMILES: N=C(N)NCCC[C@H](N)C(=O)O [arginine]
- Beta-galactosidase specific activity (units) in medium with 1 mM arginine (yggA transcription; [2]): 424 units
- Beta-galactosidase specific activity (units) in medium with 1 mM arginine (yggA transcription; [3]): 1514 units
- Beta-galactosidase specific activity (units) in medium with 1 mM arginine (yggA transcription; [4]): 66 units
- transcription of the yggA gene upon supplementation of the culture medium (yggA transcription): induced

SMILES: N=C(N)NOCC[C@H](N)C(=O)O [canavanine]
- growth of MC4100 (canavanine tolerance) ([1]; 20 micrograms/ml of canavanine): resistant
- growth of MC4100 (canavanine tolerance) ([1]; 65 micrograms/ml of canavanine in the presence of uracil at 40 micrograms/ml): sensitive
- transcription of the yggA gene upon supplementation of the culture medium (yggA transcription): induced

SMILES: NC(=O)NCCC[C@H](N)C(=O)O [citrulline]
- transcription of the yggA gene upon supplementation of the culture medium (yggA transcription): induced

SMILES: NCCCC[C@H](N)C(=O)O [lysine]
- Beta-galactosidase specific activity (units) in medium with 1 mM lysine (yggA transcription; [2]): 29 units
- Beta-galactosidase specific activity (units) in medium with 1 mM lysine (yggA transcription; [3]): 1616 units
- Beta-galactosidase specific activity (units) in medium with 1 mM lysine (yggA transcription; [4]): 14 units
- transcription of the yggA gene upon supplementation of the culture medium (yggA transcription): substantially repressed
